Where a name gives a salt, the structure may show the parent alone. Read-outs that look alike come from different tables or passages of the source.
Experiment: Multi-component pharmacokinetics in rat plasma after oral administration of RB, RPA or RB-RPA extracts (UPLC-HRMS, non-compartmental analysis)
Assay type: in vivo, Sprague-Dawley rats
Conditions: for AUC0-t / AUC0-∞ / Cmax / t1/2 / tmax / AUC(0-inf) / half-life / Cmax, second value / tmax, second value: rat plasma, n = 7; for AUC0-t / AUC0-∞ / Cmax / t1/2 / tmax / AUC(0-inf) / half-life: mean ± SD; for change of AUC0-∞ after combination: oral RB-RPA group vs single herbal group (RB or RPA)
Experimental: (Beijing, China, No. SCXK2018-0011). […] All rats were free to access the water and food until 12 h before the experiment. The animal study was reviewed and approved by the Experimental Animal Ethical Committee of Modern Research Center for Traditional Chinese Medicine, Shanxi University (animal ethic approval number: SXULL2018018), and all experimental procedures were carried out in accordance with the NIH Guide for the Care and Use of Laboratory Animals. After one week of adaptation, twenty-one rats were divided into three groups randomly, with seven rats in each group: 1) RPA group, were oral administration of Radix Paeoniae Alba extract (45 g-herb/kg); 2) RB group, were oral administration of Radix Bupleuri extract (45 g-herb/kg); 3) RB-RPA group, were oral administration of powder mixture of Radix Bupleuri and Radix Paeoniae Alba extracts (containing 45 g-herb/kg Radix Bupleuri and 45 g-herb/kg Radix Paeoniae Alba). […] Each group received intragastric administration with a volume of 10 ml/kg (rat body weight). […] All rats were free to access the water during the experiment. The blood samples at each time point were collected from seven rats. The blood samples were centrifuged at 4,000 rpm for 10 min and frozen at -80°C until analysis. Using a Thermo-Fisher Dionex UltiMate 3000 UHPLC system coupled with a Q Exactive Orbitrap-MS (Thermo-Fisher, United States) and Xcalibur workstation (Thermo-Fisher Scientific Inc.,Waltham, MA, United States) to acquire UPLC-HRMS raw data. Chromatographic separation of herb extracts and plasma samples was performed on an Acquity UPLC HSS T3 column (2.1 mm × 100 mm, 1.8 μm) maintained at 37°C. The flow rate was 0.2 ml/min and the injection volume was 5 μL. […] Mass spectrometry detection conditions were set as follows: the MS data were acquired under positive and negative ionization modes via heated electrospray ionization (HESI) source. […] The Q Exactive Orbitrap-MS has a fast positive and negative ion switching function, which could switch between positive-negative ion modes during the analysis of the same sample. So, we applied the method of switching ion modes in the detection process to quantify all analytes better. […] UPLC/MS/MS calibration and quantitation data were processed with Xcalibur workstation (Thermo-Fisher Scientific Inc., Waltham, MA, United States). For the eight components with standard reference, calculating their concentrations from the standard curves. For the other 30 components without standard reference, their concentrations were analyzed following the regression equations of homologous compounds ([Qiao et al., 2012]): paeoniflorin for P1 and M1 to M3; methylgallate for M4 to M10; saikosaponin […] and […]; saikosaponin […]; saikosaponin […]; saikosaponin B2 for P11 and M25 to […].

[1] = oral RB single extract 45 g-herb/kg
[2] = oral RB-RPA mixed extracts (45 g-herb/kg RB + 45 g-herb/kg RPA)
[3] = oral administration of mixed extracts RB-RPA
[4] = oral administration of single extract RPA
[5] = male, Sprague-Dawley, rat, plasma, po, 45 g/kg, oral administration of mixed extracts RB-RPA
[6] = male, Sprague-Dawley, rat, plasma, po, 45 g/kg, oral administration of mixed extracts RB-RPA, read-out: AUC0-t
[7] = male, Sprague-Dawley, rat, plasma, po, 45 g/kg, oral administration of mixed extracts RB-RPA, read-out: Cmax
[8] = male, Sprague-Dawley, rat, plasma, po, 45 g/kg, oral administration of mixed extracts RB-RPA, read-out: tmax
[9] = male, Sprague-Dawley, rat, plasma, po, 45 g/kg, oral administration of single extract RPA
[10] = male, Sprague-Dawley, rat, plasma, po, 45 g/kg, oral administration of single extract RPA, read-out: AUC0-t
[11] = male, Sprague-Dawley, rat, plasma, po, 45 g/kg, oral administration of single extract RPA, read-out: Cmax

AUC0-t [1] | AUC0-∞ [1] | Cmax [1] | t1/2 [1] | tmax [1] | AUC0-t [2] | AUC0-∞ [2] | Cmax [2] | t1/2 [2] | tmax [2] | AUC0-t [3] | AUC0-∞ [3] | Cmax [3] | t1/2 [3] | tmax [3] | AUC0-t [4] | AUC0-∞ [4] | Cmax [4] | t1/2 [4] | tmax [4] | Compound | other results
51.16 ± 11.83 ng·h/mL | 57.19 ± 10.74 ng·h/mL | 29.39 ± 11.24 ng/mL | 3.50 ± 0.74 h | 0.46 ± 0.19 h | 62.08 ± 16.91 ng·h/mL | 67.17 ± 16.28 ng·h/mL | 27.55 ± 9.89 ng/mL | 4.38 ± 1.27 h | 0.54 ± 0.19 h |  |  |  |  |  |  |  |  |  |  | CC(=O)OC[C@H]1O[C@@H](O[C@H]2[C@@H](O)[C@@H](C)O[C@@H](O[C@H]3CC[C@@]4(C)[C@@H](CC[C@]5(C)[C@@H]4C=CC46OCC7(CCC(C)(C)C[C@H]74)[C@@H](O)C[C@]65C)[C@]3(C)CO)[C@@H]2O)[C@H](O)[C@@H](O)[C@@H]1O (stereo partly drawn) [Acetyl-saikosaponin A] | 
 |  |  |  |  |  |  | 365.94 ± 41.75 ng/mL |  |  | 1834.06 ± 191.89 ng·h/mL | 1849.80 ± 396.92 ng·h/mL | 365.94 ± 41.75 ng/mL | 3.46 ± 0.56 h | 0.71 ± 0.25 h | 1202.69 ± 302.31 ng·h/mL | 1210.33 ± 303.04 ng·h/mL | 271.50 ± 63.29 ng/mL | 3.19 ± 0.58 h | 1.25 ± 0.89 h | C[C@]12C[C@@H](O)[C@@H]3C[C@@]1(O[C@@H]1O[C@H](CO)[C@@H](O)[C@H](O)[C@H]1O)[C@@]3(COC(=O)c1ccccc1)C(=O)O2 [Albiflorin] | Cmax (oral RPA single extract 45 g-herb/kg): 271.50 ± 63.29 ng/mL; change of AUC0-∞ after combination (rat): significantly increased
 |  |  |  |  |  |  |  |  |  | 27.39 ± 15.84 ng·h/mL | 28.66 ± 16.13 ng·h/mL | 10.12 ± 5.32 ng/mL | 2.17 ± 0.95 h | 0.58 ± 0.13 h | 18.66 ± 9.99 ng·h/mL | 20.34 ± 9.44 ng·h/mL | 8.76 ± 4.90 ng/mL | 2.72 ± 1.32 h | 0.75 ± 0.16 h | C[C@@]12C[C@@]3(O)O[C@@H](O1)[C@]1(CO)[C@H]3C[C@@]12O[C@@H]1O[C@H](CO)[C@@H](O)[C@H](O)[C@H]1O [Desbenzoylpaeoniflorin] | 
 |  |  |  |  |  |  |  |  |  |  |  |  |  |  |  |  |  |  |  | COC(=O)c1cc(O)c(O)c(O)c1 [Methyl gallate] | AUC(0-inf) [5]: 213 ± 40.5 ng·h/mL; half-life [5]: 4.77 ± 3.32 h; AUC0-t [6]: 187 ± 42.4 ng·h/mL; Cmax [7]: 57.6 ± 7.34 ng/mL; tmax [8]: 0.5 ± 0.16 h; AUC(0-inf) [9]: 144 ± 59.1 ng·h/mL; half-life [9]: 4.11 ± 2.31 h; AUC0-t [10]: 141 ± 61.3 ng·h/mL; Cmax [11]: 48.6 ± 9.47 ng/mL; tmax (male, Sprague-Dawley, rat, plasma, po, 45 g/kg, oral administration of single extract RPA, read-out: tmax): 0.58 ± 0.13 h; change of AUC0-∞ after combination (rat): significantly increased
 |  |  |  |  |  |  |  |  |  |  |  |  |  |  |  |  |  | 2.71 ± 0.72 h |  | C[C@@]12C[C@@]3(O)O[C@@H](O1)[C@]1(COC(=O)c4ccccc4)[C@H]3C[C@@]12O[C@@H]1O[C@H](CO)[C@@H](O)[C@H](O)[C@H]1O [Paeoniflorin] | Cmax (male, Sprague-Dawley, rat, plasma, po, 45 g-herb/kg, oral RPA single extract 45 g-herb/kg, read-out: Cmax): 1780 ± 513 ng/mL; AUC(0-inf) [5]: 7170 ± 1140 ng·h/mL; half-life [5]: 1.96 ± 0.37 h; AUC0-t [6]: 7170 ± 1140 ng·h/mL; Cmax [7]: 2930 ± 386 ng/mL; tmax [8]: 0.33 ± 0.13 h; AUC(0-inf) [9]: 4260 ± 873 ng·h/mL; AUC0-t [10]: 4260 ± 869 ng·h/mL; Cmax [11]: 1780 ± 513 ng/mL; Cmax (male, Sprague-Dawley, rat, plasma, po, oral RB-RPA mixed extracts (45 g-herb/kg RB + 45 g-herb/kg RPA), read-out: Cmax): 2930 ± 386 ng/mL; change of AUC0-∞ after combination (rat): significantly increased
 |  |  |  |  |  |  |  |  |  | 4248.67 ± 1970.10 ng·h/mL | 4806.68 ± 2129.42 ng·h/mL | 575.13 ± 257.81 ng/mL | 7.11 ± 2.01 h | 0.83 ± 0.13 h | 4864.64 ± 2525.32 ng·h/mL | 5467.27 ± 2837.33 ng·h/mL | 658.61 ± 349.75 ng/mL | 7.39 ± 0.45 h | 0.75 ± 0.00 h | CC1C2OC3(C)CC(=O)C1CC3(O)O2 (stereo not drawn) [Paeonimetabolin I] | 
27.23 ± 10.38 ng·h/mL | 31.50 ± 8.81 ng·h/mL | 7.47 ± 3.88 ng/mL | 3.38 ± 1.75 h | 0.83 ± 0.52 h | 32.79 ± 15.58 ng·h/mL | 34.59 ± 14.83 ng·h/mL | 8.53 ± 4.68 ng/mL | 2.98 ± 1.07 h | 0.71 ± 0.40 h |  |  |  |  |  |  |  |  |  |  | C[C@H]1O[C@@H](O[C@H]2CC[C@@]3(C)[C@@H](CC[C@]4(C)[C@@H]3C=CC3=C5CC(C)(C)CC[C@]5(CO)[C@H](O)C[C@]34C)[C@]2(C)CO)[C@H](O)[C@@H](O)[C@H]1O [Prosaikogenin D] | Cmax, second value [1]: 6.32 ± 3.38 ng/mL; tmax, second value [1]: 1.75 ± 1.02 h; Cmax, second value (oral RB-RPA mixed extracts): 8.42 ± 4.54 ng/mL; tmax, second value (oral RB-RPA mixed extracts): 1.86 ± 0.92 h
54.21 ± 25.01 ng·h/mL | 57.97 ± 25.49 ng·h/mL | 14.68 ± 6.91 ng/mL | 2.91 ± 0.84 h | 1.54 ± 0.78 h | 71.62 ± 34.91 ng·h/mL | 77.58 ± 36.46 ng·h/mL | 18.36 ± 8.50 ng/mL | 3.46 ± 0.55 h | 1.62 ± 0.74 h |  |  |  |  |  |  |  |  |  |  | C[C@H]1O[C@@H](O[C@H]2CC[C@@]3(C)[C@@H](CC[C@]4(C)[C@@H]3C=C[C@]35OC[C@@]6(CCC(C)(C)C[C@H]63)[C@@H](O)C[C@]54C)[C@]2(C)CO)[C@H](O)[C@@H](O)[C@H]1O [Prosaikogenin F] | 
10.10 ± 4.96 ng·h/mL | 11.33 ± 5.65 ng·h/mL | 5.81 ± 2.73 ng/mL | 1.48 ± 0.50 h | 0.79 ± 0.10 h | 11.50 ± 5.88 ng·h/mL | 12.94 ± 6.57 ng·h/mL | 6.08 ± 3.17 ng/mL | 1.48 ± 0.63 h | 0.75 ± 0.16 h |  |  |  |  |  |  |  |  |  |  | C[C@H]1O[C@@H](O[C@@H]2CC[C@@]3(C)[C@@H](CC[C@]4(C)[C@@H]3C=C[C@]35OC[C@@]6(CCC(C)(C)C[C@H]63)[C@@H](O)C[C@]54C)[C@@]2(C)CO)[C@H](O)[C@@H](O)[C@H]1O [Prosaikogenin G] | 
 |  |  |  |  |  |  |  |  |  | 217.62 ± 126.82 ng·h/mL | 257.66 ± 175.61 ng·h/mL | 24.16 ± 13.26 ng/mL | 7.54 ± 3.63 h | 1.75 ± 0.61 h | 164.21 ± 79.60 ng·h/mL | 187.63 ± 91.25 ng·h/mL | 18.42 ± 5.81 ng/mL | 7.72 ± 3.81 h | 2.50 ± 0.78 h | O=S(=O)(O)Oc1cccc(O)c1O [Pyrogallol sulfate] | 

Compound | AUC0-t [1] | AUC0-∞ [1] | Cmax [1] | t1/2 [1] | tmax [1] | AUC0-t [2] | AUC0-∞ [2] | Cmax [2] | t1/2 [2] | tmax [2] | AUC0-t [3] | AUC0-∞ [3] | Cmax [3] | t1/2 [3] | tmax [3] | AUC0-t [4] | AUC0-∞ [4] | Cmax [4] | t1/2 [4] | tmax [4] | other results
CC(=O)OC[C@H]1O[C@@H](O[C@H]2[C@@H](O)[C@@H](C)O[C@@H](O[C@H]3CC[C@@]4(C)[C@@H](CC[C@]5(C)[C@@H]4C=CC46OCC7(CCC(C)(C)C[C@H]74)[C@H](O)C[C@]65C)[C@]3(C)CO)[C@@H]2O)[C@H](O)[C@@H](O)[C@@H]1O (stereo partly drawn) [Acetyl-saikosaponin D] | 23.58 ± 6.77 ng·h/mL | 25.54 ± 7.23 ng·h/mL | 19.20 ± 6.70 ng/mL | 2.68 ± 0.71 h | 0.50 ± 0.27 h | 38.05 ± 21.32 ng·h/mL | 43.25 ± 27.08 ng·h/mL | 20.31 ± 12.42 ng/mL | 4.39 ± 1.55 h | 0.50 ± 0.27 h |  |  |  |  |  |  |  |  |  |  | 

— publication PMC7982521, “Studies on the Changes of Pharmacokinetics Behaviors of Phytochemicals and the Influence on Endogenous Metabolites After the Combination of Radix Bupleuri and Radix Paeoniae Alba Based on Multi-Component Pharmacokinetics and Metabolomics” (Frontiers in Pharmacology, 2021)
